Experimental data as given in patent publication US20230382924A1, “MODULATORS OF CYSTIC FIBROSIS TRANSMEMBRANE CONDUCTANCE REGULATOR” (VERTEX PHARMACEUTICALS INCORPORATED, priority 2020, published 2023).
Read-outs that look alike come from different tables or passages of the source.

How the values were obtained:
[1] = target: CFTR (Homo sapiens, UniProt P13569); assay: Membrane Potential Dye, Enteroid Assay A; format: cell-based; settings: for EC50: read-out: Ent. A EC50
Outline: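 Enteroid cells were loaded with methyl oxonol membrane potential dye (plus CaCCinh-A01 and Chicago Sky Blue) for 25 min at room temperature. Chloride transport was started by switching to chloride-free gluconate stimulation solution, with fluorescence read for 15 min. Activity was expressed as % of a triple-combination CFTR modulator control (3 μM, 3 μM, 300 nM acute).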

Chain of CFTR (P13569 with tags, fused parts or gaps DEL508-508): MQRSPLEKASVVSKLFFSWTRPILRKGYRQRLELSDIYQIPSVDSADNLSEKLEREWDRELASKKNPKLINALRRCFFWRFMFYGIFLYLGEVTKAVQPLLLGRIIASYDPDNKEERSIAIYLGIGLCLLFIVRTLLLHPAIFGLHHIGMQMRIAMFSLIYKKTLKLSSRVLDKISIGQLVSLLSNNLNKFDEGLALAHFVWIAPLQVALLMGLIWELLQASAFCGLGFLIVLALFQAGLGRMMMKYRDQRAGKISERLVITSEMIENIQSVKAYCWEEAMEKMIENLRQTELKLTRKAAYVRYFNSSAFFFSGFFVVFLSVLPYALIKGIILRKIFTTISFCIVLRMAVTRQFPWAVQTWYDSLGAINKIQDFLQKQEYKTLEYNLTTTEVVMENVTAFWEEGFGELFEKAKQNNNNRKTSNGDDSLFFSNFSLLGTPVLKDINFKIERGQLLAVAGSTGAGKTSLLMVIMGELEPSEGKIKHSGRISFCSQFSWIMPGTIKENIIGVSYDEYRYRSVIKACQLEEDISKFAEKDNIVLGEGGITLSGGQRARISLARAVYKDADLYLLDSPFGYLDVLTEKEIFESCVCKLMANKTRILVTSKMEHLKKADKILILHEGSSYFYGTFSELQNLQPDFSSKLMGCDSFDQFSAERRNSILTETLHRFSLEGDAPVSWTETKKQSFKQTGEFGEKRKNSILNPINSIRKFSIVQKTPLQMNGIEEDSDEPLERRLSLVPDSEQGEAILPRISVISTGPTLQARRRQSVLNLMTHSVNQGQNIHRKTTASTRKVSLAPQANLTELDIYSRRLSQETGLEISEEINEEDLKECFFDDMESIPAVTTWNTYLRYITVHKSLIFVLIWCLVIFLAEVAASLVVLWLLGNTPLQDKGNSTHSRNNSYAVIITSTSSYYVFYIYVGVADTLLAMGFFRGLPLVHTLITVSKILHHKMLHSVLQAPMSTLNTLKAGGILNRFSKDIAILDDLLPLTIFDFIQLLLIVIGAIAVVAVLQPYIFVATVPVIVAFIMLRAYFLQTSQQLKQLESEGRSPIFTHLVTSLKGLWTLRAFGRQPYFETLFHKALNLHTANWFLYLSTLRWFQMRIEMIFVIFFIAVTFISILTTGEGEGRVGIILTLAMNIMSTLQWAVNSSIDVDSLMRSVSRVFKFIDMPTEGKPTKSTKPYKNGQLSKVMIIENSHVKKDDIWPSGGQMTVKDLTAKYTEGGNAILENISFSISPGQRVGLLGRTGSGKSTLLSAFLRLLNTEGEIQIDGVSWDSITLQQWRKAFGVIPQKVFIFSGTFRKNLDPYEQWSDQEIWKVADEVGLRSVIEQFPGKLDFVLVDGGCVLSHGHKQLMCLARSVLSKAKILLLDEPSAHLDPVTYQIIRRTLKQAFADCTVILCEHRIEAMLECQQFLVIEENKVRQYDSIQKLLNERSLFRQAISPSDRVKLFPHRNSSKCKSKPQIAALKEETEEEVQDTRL

Ent. A Max Activity ([1]; Table 9)	EC50 ([1]; Table 9) [nM]	Ent. A Max Activity ([1]; Table 8)	EC50 ([1]; Table 8) [nM]	SMILES	also measured
+++ (+++ is >60%)	< 1000	–	–	COC[C@H]1NC(=O)c2cccc(c2)S(=O)(=O)Nc2nc(cc(-c3c(C)cccc3C)n2)OC1c1ccc(C(C)(C)C)cc1 (single isomer, unassigned) [Compound 45]	ring closure, yield after HPLC (from COC[C@@H](N)[C@H](Oc1cc(-c2c(C)cccc2C)nc(NS(=O)(=O)c2cccc(C(=O)O)c2)n1)c1ccc(C(C)(C)C)cc1, amide bond, 13-membered ring, HATU/DIEA, DMF, 161.6 mM, 25.0 °C, 0.5 h): 8%; ring closure, yield after HPLC (from COC[C@@H](N)[C@H](Oc1cc(-c2c(C)cccc2C)nc(NS(=O)(=O)c2cccc(C(=O)O)c2)n1)c1ccc(C(C)(C)C)cc1, amide bond, 13-membered ring, HATU/DIEA, DMF, 162.0 mM, 0.5 h): 10%
–	–	+++ (+++ is >60%)	< 1000	Cc1cccc(C)c1-c1cc2nc(n1)NS(=O)(=O)c1cccc(c1)C(=O)NCC(c1ccc(C(C)(C)C)cc1)O2 (stereo not drawn) [Compound 3, 10-(4-tert-butylphenyl)-6-(2,6-dimethylphenyl)-2,2-dioxo-9-oxa-2λ^6-thia-3,5,12,19-tetrazatricyclo[12.3.1.14,8]nonadeca-1(18),4(19),5,7,14,16-hexaen-13-one]	ring closure, yield after HPLC (from Cc1cccc(C)c1-c1cc(Cl)nc(NS(=O)(=O)c2cccc(C(=O)NCC(O)c3ccc(C(C)(C)C)cc3)c2)n1, snar bond, 13-membered ring, NaH, NMP, 8.5 mM, 90.0 °C, 2.5 h): 12%
–	–	–	< 1000	Cc1cccc(C)c1-c1cc2nc(n1)NS(=O)(=O)c1cccc(c1)C(=O)NCC(c1ccc(C(C)(C)C)cn1)O2 (stereo not drawn) [Compound 6, 10-(5-tert-Butyl-2-pyridyl)-6-(2,6-dimethylphenyl)-2,2-dioxo-9-oxa-2λ^6-thia-3,5,12,19-tetrazatricyclo[12.3.1.14,8]nonadeca-1(18),4(19),5,7,14,16-hexaen-13-one]	ring closure, yield after HPLC (from Cc1cccc(C)c1-c1cc(OC(CN)c2ccc(C(C)(C)C)cn2)nc(NS(=O)(=O)c2cccc(C(=O)O)c2)n1, amide bond, 13-membered ring, HATU/DIEA, DMF, 40.9 mM, 25.0 °C, 0.25 h): 33%
–	–	–	3000 to 30000	Cc1cccc(C)c1-c1cc2nc(n1)NS(=O)(=O)c1cccc(c1)C(=O)NCC(C(=O)NCCC(C)(C)C)O2 (stereo not drawn) [Compound 30, N-(3,3-Dimethylbutyl)-6-(2,6-dimethylphenyl)-2,2,13-trioxo-9-oxa-2λ^6-thia-3,5,12,19-tetrazatricyclo[12.3.1.14,8]nonadeca-1(18),4(19),5,7,14,16-hexaene-10-carboxamide]	ring closure, yield after HPLC (from Cc1cccc(C)c1-c1cc(OC(CN)C(=O)NCCC(C)(C)C)nc(NS(=O)(=O)c2cccc(C(=O)O)c2)n1, amide bond, 13-membered ring, HATU/DIEA, DMF, 30.2 mM, 25.0 °C, 0.25 h): 28%
–	–	+++ (+++ is >60%)	< 1000	Cc1cccc(C)c1-c1cc2nc(n1)NS(=O)(=O)c1cccc(c1)C(=O)NCC(c1ccccc1Cl)O2 (stereo not drawn) [Compound 31, 10-(2-Chlorophenyl)-6-(2,6-dimethylphenyl)-2,2-dioxo-9-oxa-2λ^6-thia-3,5,12,19-tetrazatricyclo[12.3.1.14,8]nonadeca-1(18),4(19),5,7,14,16-hexaen-13-one]	ring closure, yield after HPLC (from Cc1cccc(C)c1-c1cc(OC(CN)c2ccccc2Cl)nc(NS(=O)(=O)c2cccc(C(=O)O)c2)n1, amide bond, 13-membered ring, HATU/DIEA, DMF, 42.4 mM, 25.0 °C, 1.0 h): 49%
–	–	+++ (+++ is >60%)	< 1000	Cc1cccc(C)c1-c1cc2nc(n1)NS(=O)(=O)c1cccc(c1)C(=O)NCC(c1cccc(Cl)c1)O2 (stereo not drawn) [Compound 32, 10-(3-Chlorophenyl)-6-(2,6-dimethylphenyl)-2,2-dioxo-9-oxa-2λ^6-thia-3,5,12,19-tetrazatricyclo[12.3.1.14,8]nonadeca-1(18),4(19),5,7,14,16-hexaen-13-one]	ring closure, yield after HPLC (from Cc1cccc(C)c1-c1cc(OC(CN)c2cccc(Cl)c2)nc(NS(=O)(=O)c2cccc(C(=O)O)c2)n1, amide bond, 13-membered ring, HATU/DIEA, DMF, 41.6 mM, 25.0 °C, 1.0 h): 27%
–	–	+++ (+++ is >60%)	< 1000	Cc1cccc(C)c1-c1cc2nc(n1)NS(=O)(=O)c1cccc(c1)C(=O)NCC(c1ccc(OCC3(C(F)(F)F)CC3)cc1)O2 (stereo not drawn) [Compound 33, 6-(2,6-Dimethylphenyl)-2,2-dioxo-10-[4-[[1-(trifluoromethyl)cyclopropyl]methoxy]phenyl]-9-oxa-2λ^6-thia-3,5,12,19-tetrazatricyclo[12.3.1.14,8]nonadeca-1(18),4(19),5,7,14,16-hexaen-13-one]	ring closure, yield after HPLC (from Cc1cccc(C)c1-c1cc(OC(CN)c2ccc(OCC3(C(F)(F)F)CC3)cc2)nc(NS(=O)(=O)c2cccc(C(=O)O)c2)n1, amide bond, 13-membered ring, HATU/DIEA, DMF, 48.7 mM, 25.0 °C, 72.0 h): 10%
–	–	+ (+ is <30%)	–	Cc1cccc(C)c1-c1cc2nc(n1)NS(=O)(=O)c1cccc(c1)C(=O)NCC(C1CCOCC1)O2 (stereo not drawn) [Compound 34, 6-(2,6-Dimethylphenyl)-2,2-dioxo-10-tetrahydropyran-4-yl-9-oxa-2λ^6-thia-3,5,12,19-tetrazatricyclo[12.3.1.14,8]nonadeca-1(18),4(19),5,7,14,16-hexaen-13-one]	ring closure, yield after HPLC (from Cc1cccc(C)c1-c1cc(OC(CN)C2CCOCC2)nc(NS(=O)(=O)c2cccc(C(=O)O)c2)n1, amide bond, 13-membered ring, HATU/DIEA, DMF, 66.2 mM, 25.0 °C, 0.25 h): 25%
++ (++ is 30-60%)	< 1000	–	–	Cc1cccc(C)c1-c1cc2nc(n1)NS(=O)(=O)c1cccc(c1)C(=O)N[C@H](C)[C@@H](c1ccc(C(F)(F)F)cc1)O2 [Compound 41, (10R,11R)-6-(2,6-Dimethylphenyl)-11-methyl-2,2-dioxo-10-[4-(trifluoromethyl)phenyl]-9-oxa-2λ^6-thia-3,5,12,19-tetrazatricyclo[12.3.1.14,8]nonadeca-1(18),4(19),5,7,14,16-hexaen-13-one]	ring closure, yield after HPLC (from Cc1cccc(C)c1-c1cc(O[C@H](c2ccc(C(F)(F)F)cc2)[C@@H](C)N)nc(NS(=O)(=O)c2cccc(C(=O)O)c2)n1, amide bond, 13-membered ring, HATU/NaOtBu, DMF/THF, 96.3 mM, 25.0 °C, 0.33 h, 2 steps): 10%
++ (++ is 30-60%)	< 1000	–	–	Cc1cccc(C)c1-c1cc2nc(n1)NS(=O)(=O)c1cccc(c1)C(=O)N[C@H](C)[C@H](c1ccc(C(F)(F)F)cc1)O2 [Compound 42, (10S,11R)-6-(2,6-dimethylphenyl)-11-methyl-2,2-dioxo-10-[4-(trifluoromethyl)phenyl]-9-oxa-2λ^6-thia-3,5,12,19-tetrazatricyclo[12.3.1.14,8]nonadeca-1(18),4(19),5,7,14,16-hexaen-13-one]	ring closure, yield after HPLC (from Cc1cccc(C)c1-c1cc(O[C@@H](c2ccc(C(F)(F)F)cc2)[C@@H](C)N)nc(NS(=O)(=O)c2cccc(C(=O)O)c2)n1, amide bond, 13-membered ring, HATU/NaOtBu, DMF/THF, 96.3 mM, 25.0 °C, 0.33 h, 2 steps): 4%
++ (++ is 30-60%)	1000 to 3000	–	–	Cc1cccc(C)c1-c1cc2nc(n1)NS(=O)(=O)c1cccc(c1)C(=O)NCCC(c1ccc(C(C)(C)C)cc1)O2 (stereo not drawn) [Compound 55, 10-(4-tert-Butylphenyl)-6-(2,6-dimethylphenyl)-2,2-dioxo-9-oxa-2λ^6-thia-3,5,13,20-tetrazatricyclo[13.3.1.14,8]icosa-1(19),4(20),5,7,15,17-hexaen-14-one]	ring closure, yield after HPLC (from Cc1cccc(C)c1-c1cc(OC(CCN)c2ccc(C(C)(C)C)cc2)nc(NS(=O)(=O)c2cccc(C(=O)O)c2)n1, amide bond, 14-membered ring, HATU/TEA, DMF, 204.0 mM, 50.0 °C, 0.25 h): 18%
–	–	+ (+ is <30%)	–	Cc1cccc(C)c1-c1cc2nc(n1)NS(=O)(=O)N1CCCC(C1)C(=O)N[C@H](CC1CCCCC1)CO2 (stereo partly drawn) [Compound 73, (11R)-11-(Cyclohexylmethyl)-6-(2,6-dimethylphenyl)-2,2-dioxo-9-oxa-2λ^6-thia-1,3,5,12,19-pentazatricyclo[12.3.1.14,8]nonadeca-4(19),5,7-trien-13-one]	ring closure, yield after HPLC (from Cc1cccc(C)c1-c1cc(OC[C@H](N)CC2CCCCC2)nc(NS(=O)(=O)N2CCCC(C(=O)O)C2)n1, amide bond, 13-membered ring, HATU/DIEA, DMF, 19.2 mM, 3.0 h): 19%
+++ (+++ is >60%)	< 1000	–	–	Cc1cccc(COCc2ccccc2)c1-c1cc2nc(n1)NS(=O)(=O)c1cccc(c1)C(=O)N[C@H](CC(C)C)CO2 [Compound 106, (11R)-6-[2-(benzyloxymethyl)-6-methyl-phenyl]-11-isobutyl-2,2-dioxo-9-oxa-2λ^6-thia-3,5,12,19-tetrazatricyclo[12.3.1.14,8]nonadeca-1(18),4(19),5,7,14,16-hexaen-13-one]	ring closure, yield after HPLC (from Cc1cccc(COCc2ccccc2)c1-c1cc(OC[C@H](N)CC(C)C)nc(NS(=O)(=O)c2cccc(C(=O)O)c2)n1, amide bond, 13-membered ring, HATU/DIEA, DMF, 48.7 mM, 25.0 °C, 0.5 h): 30%

SMILES	Ent. A Max Activity ([1]; Table 9)	EC50 ([1]; Table 9) [nM]	Ent. A Max Activity ([1]; Table 8)	EC50 ([1]; Table 8) [nM]	also measured
Cc1cccc(C)c1-c1cc2nc(n1)NS(=O)(=O)c1cccc(c1)C(=O)N[C@@H](C)[C@@H](c1ccc(C(C)(C)C)cc1)O2 [Compound 43, (10R,11S)-10-(4-tert-butylphenyl)-6-(2,6-dimethylphenyl)-11-methyl-2,2-dioxo-9-oxa-2λ^6-thia-3,5,12,19-tetrazatricyclo[12.3.1.14,8]nonadeca-1(18),4(19),5,7,14,16-hexaen-13-one]	+++ (+++ is >60%)	< 1000	–	–	ring closure, yield after HPLC (from Cc1cccc(C)c1-c1cc(O[C@H](c2ccc(C(C)(C)C)cc2)[C@H](C)N)nc(NS(=O)(=O)c2cccc(C(=O)O)c2)n1, amide bond, 13-membered ring, HATU/NaOtBu, DMF/THF, 53.4 mM, 25.0 °C, 0.1 h, 2 steps): 13%
